Assay [1] has as its system parental IGR-CaP1 and PC3 cells. Description: EMT induction by TGFβ1, immunoblot of SHISA3 and EMT markers. The assay is classed as cell-based, human. The following applies: 10 ng/ml TGFβ1, 5 days. The source says: A. Schematic structure of SHISA3 and SHISA3-Flag sharing a signal peptide (black box), an amino-terminal CRD (blue box), a predicted transmembrane segment (TM), and a carboxy-terminal proline-rich region (Grey box). The position of the FLAG tag (red box) is indicated. B. SHISA3 and endogenous TGFβR2 interaction. Cells extracts from IGR-CaP1, PC3 and HEK cells transfected with SHISA3-Flag were immunoprecipitated with anti-TGFβR2, anti-EGFR, anti-Flag antibodies or IgG as control and analyzed by immunoblot using anti-TGFβR2, anti-EGFR and anti-SHISA3 antibodies. Input represents 10% of the IP. C. Co-localization of SHISA3 and TGFβR2 in cytoplasmic granules and speckles at the membrane. Subcellular localizations of SHISA3 and TGFβR2 were analyzed by confocal microscopy after co-transfection of SHISA3-Flag and HA-TGFβR2 in HEK cells using anti-SHISA3 and anti-TGFβR2 primary antibodies, and Alexa-568- and Alexa-647-conjugated secondary antibodies respectively. Nuclei were labeled with Dapi. Overlapped fluorescent signals (yellow) indicated co-localized proteins. D. SHISA3 and EMT markers expression 5 days after cell treatment with TGFβ1. […] Quantification of bands relative to beta actin is shown.
2,5.10^4 IGR-CaP1 cells and 5.10^4 PC3 cells were plated in 6-well plates for 24 hours then transiently transfected with 10 nM synthetic siRNA targeting SHISA3 gene (Stealth RNAi™, siSHISA3-94: HSS152694, siSHISA3-95: HSS152695, and siSHISA3-96: HSS152696) using lipofectamine RNAiMax (Invitrogen) or treated with 10 ng/ml TGFβ1. After 36 hours, a second treatment was performed in order to maintain EMT induction over 5 days. Negative controls were obtained by treating cells with siRNA negative controls (siNT) (Invitrogen) or TGFβ1 vehicle. Whole cell extracts were prepared in RIPA buffer complemented with proteases inhibitors (Roche) and phosphatase inhibitors (Sigma).
Fifty μg of lysates were used for Western-Blot probed with specific antibodies: SHISA3 (Abgent), E-cadherin (BD Biosciences, clone 36), N-Cadherin (BD Biosciences, Clone 32), β-catenin (Santa Cruz, clone 12F7), Vimentin (BD Pharmingen, clone RV202), Occludin (Life Technologies, Clone OC-3F10), Plakoglobin (Sigma-Aldrich, Clone 15F11), Snail (Cell Signaling, Clone C15D3), ZEB1 (Cell Signaling, D80D), EGFR (Cell Signaling, Clone D38B1), TGFβR2 (Santa Cruz, Clone E-6), Ubiquitin (Santa Cruz, Clone P4D1), Flag (Sigma, M2). β-actin (Sigma-Aldrich, Clone AC-15) was used as a loading control. Immunoblot analyses were performed using the enhanced chemoluminescence-based detection kit (Pierce).
For orientation: In western blotting, separated proteins are transferred to a membrane and probed.

The subject of the next assay is parental IGR-CaP1 cells. Briefly: Colony formation (clonogenicity) assay, parental cells. As to conditions: 25 μM LY2157299 alone, 72 h pretreatment, stained 2 weeks later. The assay is classed as cell-based, human. As to the method: (§1) Colony formation assay. Cells were pretreated with 25 μM LY2157299 or vehicle for 72 hours. Then, cells were treated with Docetaxel and/or 25 μM LY2157299, control cells were treated with vehicle. Docetaxel was used at 12 nM in parental IGR-CaP1 and 100 nM in resistant IGR-CaP1-R100. Cells were stained with Crystal Violet 2 weeks later. Data are represented as mean±SD. […] Representative cell colonies obtained in each condition is shown.
(§2) IGR-CaP1 and IGR-CaP1-R cells were plated in 6 well plates for 24 hours. Cells were pre-treated with 25 μM LY2157299 or vehicle for 72 hours, and then co-treated with LY2157299 and docetaxel (12 nM for parental cells, 100 nM for resistant cells). After 2 weeks, clones were methanol fixed and stained using Crystal violet (sigma). Clones were counted using ImageJ software.

The test system of assay [2] is resistant IGR-CaP1-R100 cells. Description: Colony formation (clonogenicity) assay, docetaxel-resistant cells. The assay is classed as cell-based, human. As to conditions: 25 μM LY2157299 alone, 72 h pretreatment, stained 2 weeks later. As to the method:
as §1, §2

Assay [3] relates to SHISA3 expression in IGR-CaP1 tumors. Briefly: SHISA3 mRNA expression by quantitative PCR in docetaxel-sensitive xenograft tumors. Type of assay: in vivo, nude athymic mice. As to conditions: docetaxel vs vehicle. The source says:
(§3) FIG. 1: Expression of SHISA3 in docetaxel-resistant prostate cancer cells and in other cancers A. Real-time qRT-PCR showing the inhibition of SHISA3 gene expression in docetaxel-resistant IGR-CaP1-R and PC3-R cells. B. Whole cell extracts of parental and drug-resistant cells were subjected to immunoblotting with antibodies specific for SHISA3 or β-actin (loading control). Arrows indicate specific bands corresponding to SHISA3, star indicates a non-specific band. C. […] D-E. SHISA3 mRNA was assessed by determining ΔCt in normal tissues and in several solid tumors. Results were normalized to the universal RNA included in each panel. In D, out of all the tested tissues for SHISA3 expression, only tissues with the highest expression were shown. In E, the bars represent the mean. P value was derived from the two-tailed Student's t test. F. Subcellular localization after transfection of SHISA3-Flag-GFP in HEK cells. Cells were analyzed by confocal microscopy. GFP stained the transfected cells, SHISA3 was labeled with anti-SHISA3 antibody (red) and nucleus was stained with Dapi. […] Secondary antibodies were used as followed: Alexa-568 for SHISA3 and Alexa-647 for Calnexin and GM130. G. SHISA3 mRNA expression was assessed in vivo on nude athymic mice models. […] SHISA3 expression has been obtained by quantitative PCR and normalized by its expression in a control sample of Universal RNA. […]

The test system of assay [4] is SHISA3 expression in IGR-CaP1-R25 tumors. Briefly: SHISA3 mRNA expression by quantitative PCR in docetaxel-resistant xenograft tumors. The assay is classed as in vivo, nude athymic mice. As to conditions: docetaxel vs vehicle.
Description: as §3

For the compound TGFβ: TGFβ1 purchased from R&D Systems, in assay [1], the CDH1 expression result is given as “decrease”, the CDH2 expression entry is recorded as “increase” and the VIM expression result was “increase”. Moreover, the SHISA3 expression result in assay [1] (vs control cells) is reported as “decrease”.

In the case of `Cc1cccc(-c2nn3c(c2-c2ccnc4ccc(C(N)=O)cc24)CCC3)n1` [LY2157299], the “survival of parental cells (colony formation)” value with parental IGR-CaP1 cells is “did not affect the survival”. The “survival of resistant cells (colony formation)” value in assay [2] was “did not affect the survival”.

In the case of `CC(=O)O[C@@]12CO[C@@H]1C[C@H](O)[C@@]1(C)C(=O)[C@H](O)C3=C(C)[C@@H](OC(=O)[C@H](O)[C@@H](NC(=O)OC(C)(C)C)c4ccccc4)C[C@@](O)([C@@H](OC(=O)c4ccccc4)[C@H]21)C3(C)C` [docetaxel], the “SHISA3 gene expression in tumors” value in assay [3] was “strong decrease”; in assay [4], “did not affect its expression”.

(Values after patent US20170321282A1, “IMPROVED TREATMENTS OF CANCER RESISTANT TO TAXOIDS” (INSTITUT GUSTAVE ROUSSY, priority 2014, published 2017).)
